Legend:
Format in all cases: functional
Conditions in all cases: read-out: GI
Xanthium strumarium = experiment: Post emergence herbicidal activity against Xanthium strumarium (cocklebur) assessed as inhibition of weed growth at 125 g ai/ha measured 22 to 37 days after compound application under greenhouse conditions
Persicaria longiseta = experiment: Post-emergence herbicidal activity against Persicaria longiseta assessed as inhibition of weed growth at 125 g ai/ha measured 22 to 37 days after compound application under greenhouse conditions
Echinochloa crus-galli = experiment: Post emergence herbicidal activity against Echinochloa crus-galli (barnyard grass) assessed as inhibition of weed growth at 125 g ai/ha measured 22 to 37 days after compound application under greenhouse conditions
Amaranthus viridis = experiment: Post-emergence herbicidal activity against Amaranthus viridis assessed as inhibition of weed growth at 125 g ai/ha measured 22 to 37 days after compound application under greenhouse conditions
Zea mays = experiment: Post emergence phyototoxic activity against Zea mays (maize) plants assessed as inhibition of plant growth at 125 g ai/ha measured 22 to 37 days after compound application under greenhouse conditions
Sida spinosa = experiment: Post-emergence herbicidal activity against Sida spinosa assessed as inhibition of weed growth at 125 g ai/ha measured 22 to 37 days after compound application under greenhouse conditions
Ipomoea purpurea = experiment: Post emergence herbicidal activity against Ipomoea purpurea (common morning-glory) assessed as inhibition of weed growth at 125 g ai/ha measured 22 to 37 days after compound application under greenhouse conditions
Triticum aestivum = experiment: Post emergence phyototoxic activity against Triticum aestivum (wheat) plants assessed as inhibition of plant growth at 125 g ai/ha measured 22 to 37 days after compound application under greenhouse conditions

## CSc1cc(SC)nc(NC(=O)NS(=O)(=O)c2ncccc2C(=O)N(C)C)n1
Xanthium strumarium
  inhibition of growth at 125 g/ha: 0%
Persicaria longiseta
  inhibition of growth at 125 g/ha: 0%
Echinochloa crus-galli
  inhibition of growth at 125 g/ha: 0%
Amaranthus viridis
  inhibition of growth at 125 g/ha: 0%
Zea mays
  inhibition of growth at 125 g/ha: 0%
Sida spinosa
  inhibition of growth at 125 g/ha: 0%

## COc1nc(C)nc(NC(=O)NS(=O)(=O)c2ncccc2C(=O)N(C)C)n1
Ipomoea purpurea
  inhibition of growth at 125 g/ha: 0%
Triticum aestivum
  inhibition of growth at 125 g/ha: 0%
Echinochloa crus-galli
  inhibition of growth at 125 g/ha: 0%
Zea mays
  inhibition of growth at 125 g/ha: 0%
Sida spinosa
  inhibition of growth at 125 g/ha: 0%

## COc1nc(NC(=O)NS(=O)(=O)c2ncccc2C(=O)N(C)C)nc(OC)n1
Persicaria longiseta
  inhibition of growth at 125 g/ha: 0%
Ipomoea purpurea
  inhibition of growth at 125 g/ha: 0%
Triticum aestivum
  inhibition of growth at 125 g/ha: 0%
Echinochloa crus-galli
  inhibition of growth at 125 g/ha: 0%
Amaranthus viridis
  inhibition of growth at 125 g/ha: 0%
Zea mays
  inhibition of growth at 125 g/ha: 0%
Sida spinosa
  inhibition of growth at 125 g/ha: 0%

## CN(C)C(=O)c1cccnc1S(=O)(=O)NC(=O)Nc1nc(OC(F)F)cc(OC(F)F)n1
Xanthium strumarium
  inhibition of growth at 125 g/ha: 0%
Persicaria longiseta
  inhibition of growth at 125 g/ha: 0%
Triticum aestivum
  inhibition of growth at 125 g/ha: 0%
Sida spinosa
  inhibition of growth at 125 g/ha: 0%

## COc1cc(SC)nc(NC(=O)NS(=O)(=O)c2ncccc2C(=O)N(C)C)n1
Amaranthus viridis
  inhibition of growth at 125 g/ha: 100%
Zea mays
  inhibition of growth at 125 g/ha: 0%

## COc1cc(OC(F)F)nc(NC(=O)NS(=O)(=O)c2ncccc2C(=O)N(C)C)n1
Zea mays
  inhibition of growth at 125 g/ha: 0%

## COc1cc(Cl)nc(NC(=O)NS(=O)(=O)c2ncccc2C(=O)N(C)C)n1
Zea mays
  inhibition of growth at 125 g/ha: 0%
Sida spinosa
  inhibition of growth at 125 g/ha: 0%

## CCOc1cc(OC)nc(NC(=O)NS(=O)(=O)c2ncccc2C(=O)N(C)C)n1
Amaranthus viridis
  inhibition of growth at 125 g/ha: 100%
Zea mays
  inhibition of growth at 125 g/ha: 0%

## COc1cc(C)nc(NC(=O)NS(=O)(=O)c2ncccc2C(=O)N(C)C)n1
Zea mays
  inhibition of growth at 125 g/ha: 0%

## Cc1cc(C)nc(NC(=O)NS(=O)(=O)c2ncccc2C(=O)N(C)C)n1
Persicaria longiseta
  inhibition of growth at 125 g/ha: 0%
Ipomoea purpurea
  inhibition of growth at 125 g/ha: 0%
Triticum aestivum
  inhibition of growth at 125 g/ha: 0%
Echinochloa crus-galli
  inhibition of growth at 125 g/ha: 0%
Zea mays
  inhibition of growth at 125 g/ha: 0%
Sida spinosa
  inhibition of growth at 125 g/ha: 0%

## COc1cc(OC)nc(NC(=O)NS(=O)(=O)c2ncccc2C(=O)N2CCOCC2)n1
Triticum aestivum
  inhibition of growth at 125 g/ha: 0%
Zea mays
  inhibition of growth at 125 g/ha: 0%

## COc1cc(OC)nc(NC(=O)NS(=O)(=O)c2ncccc2C(=O)N2CCCCC2)n1
Zea mays
  inhibition of growth at 125 g/ha: 0%

## CCC(=O)N(CC)C(=O)c1cccnc1S(=O)(=O)NC(=O)Nc1nc(OC)cc(OC)n1
Amaranthus viridis
  inhibition of growth at 125 g/ha: 100%
Zea mays
  inhibition of growth at 125 g/ha: 0%

## COc1cc(OC)nc(NC(=O)NS(=O)(=O)c2ncccc2C(=O)N(C)c2ccc(F)cc2F)n1
Triticum aestivum
  inhibition of growth at 125 g/ha: 100%
Sida spinosa
  inhibition of growth at 125 g/ha: 0%

## COc1cc(OC)nc(NC(=O)NS(=O)(=O)c2ncccc2C(=O)NC2CC2)n1
Echinochloa crus-galli
  inhibition of growth at 125 g/ha: 100%
Zea mays
  inhibition of growth at 125 g/ha: 0%

## CCCCNC(=O)c1cccnc1S(=O)(=O)NC(=O)Nc1nc(OC)cc(OC)n1
Zea mays
  inhibition of growth at 125 g/ha: 0%

## COC(=O)CNC(=O)c1cccnc1S(=O)(=O)NC(=O)Nc1nc(OC)cc(OC)n1
Ipomoea purpurea
  inhibition of growth at 125 g/ha: 0%
Triticum aestivum
  inhibition of growth at 125 g/ha: 0%
Echinochloa crus-galli
  inhibition of growth at 125 g/ha: 0%
Amaranthus viridis
  inhibition of growth at 125 g/ha: 0%
Zea mays
  inhibition of growth at 125 g/ha: 0%
Sida spinosa
  inhibition of growth at 125 g/ha: 0%

## CCN(C)C(=O)c1cccnc1S(=O)(=O)NC(=O)Nc1nc(OC)cc(OC)n1
Xanthium strumarium
  inhibition of growth at 125 g/ha: 100%
Echinochloa crus-galli
  inhibition of growth at 125 g/ha: 100%
Zea mays
  inhibition of growth at 125 g/ha: 0%

## COc1cc(OC)nc(NC(=O)NS(=O)(=O)c2ncccc2C(=O)N(C)CC(F)(F)F)n1
Zea mays
  inhibition of growth at 125 g/ha: 0%

## COc1cc(OC)nc(NC(=O)NS(=O)(=O)c2ncccc2C(=O)N(C)OC)n1
Triticum aestivum
  inhibition of growth at 125 g/ha: 100%
Echinochloa crus-galli
  inhibition of growth at 125 g/ha: 100%
Amaranthus viridis
  inhibition of growth at 125 g/ha: 100%
Zea mays
  inhibition of growth at 125 g/ha: 0%

## COC(=O)N(C)C(=O)c1cccnc1S(=O)(=O)NC(=O)Nc1nc(OC)cc(OC)n1
Zea mays
  inhibition of growth at 125 g/ha: 0%

## COc1cc(OC)nc(NC(=O)NS(=O)(=O)c2ncccc2C(=O)N(C)c2ccccc2)n1
Zea mays
  inhibition of growth at 125 g/ha: 0%

## COc1cc(OC)nc(NC(=O)NS(=O)(=O)c2ncccc2C(=O)N(C)c2ccc(Cl)cc2)n1
Xanthium strumarium
  inhibition of growth at 125 g/ha: 100%
Zea mays
  inhibition of growth at 125 g/ha: 0%

## C=CCNC(=O)c1cccnc1S(=O)(=O)NC(=O)Nc1nc(OC)cc(OC)n1
Zea mays
  inhibition of growth at 125 g/ha: 0%

## C=C(C)NC(=O)c1cccnc1S(=O)(=O)NC(=O)Nc1nc(OC)cc(OC)n1
Zea mays
  inhibition of growth at 125 g/ha: 0%

## COc1cc(OC)nc(NC(=O)NS(=O)(=O)c2ncccc2C(=O)NCC(F)(F)F)n1
Zea mays
  inhibition of growth at 125 g/ha: 0%

## CCNC(=O)c1cccnc1S(=O)(=O)NC(=O)Nc1nc(OC)cc(OC)n1
Zea mays
  inhibition of growth at 125 g/ha: 0%

## CNC(=O)c1cccnc1S(=O)(=O)NC(=O)Nc1nc(OC)cc(OC)n1
Xanthium strumarium
  inhibition of growth at 125 g/ha: 100%
Persicaria longiseta
  inhibition of growth at 125 g/ha: 100%
Echinochloa crus-galli
  inhibition of growth at 125 g/ha: 100%
Amaranthus viridis
  inhibition of growth at 125 g/ha: 100%
Zea mays
  inhibition of growth at 125 g/ha: 0%

Source: ChEMBL document CHEMBL3046890, “Synthesis and Herbicidal Activity of Sulfonylureas; SL-950 and Its Related Compounds” (1995)
